Source: PMC4014597 (PLoS ONE, 2014)

Columns and labels:
[1] = tested on: CMV-luc construct in KG-1 cells; assay: CMV-luc assay (luciferase re-expression from methylated CMV promoter); format: cell-based; conditions: 24 h
human DNMT1 (hDNMT1) = biological target: T1, human DNMT1 (hDNMT1) (Homo sapiens, UniProt P26358); assay: DNMT1 assay (radioactive Flashplate methylation assay); format: biochemical; conditions: for inhibition at 100 µM: 100 µM compound, read-out: % inhibition ± SD hDNMT1
T1 construct: His; made in house
T1 sequence (P26358 whole entry): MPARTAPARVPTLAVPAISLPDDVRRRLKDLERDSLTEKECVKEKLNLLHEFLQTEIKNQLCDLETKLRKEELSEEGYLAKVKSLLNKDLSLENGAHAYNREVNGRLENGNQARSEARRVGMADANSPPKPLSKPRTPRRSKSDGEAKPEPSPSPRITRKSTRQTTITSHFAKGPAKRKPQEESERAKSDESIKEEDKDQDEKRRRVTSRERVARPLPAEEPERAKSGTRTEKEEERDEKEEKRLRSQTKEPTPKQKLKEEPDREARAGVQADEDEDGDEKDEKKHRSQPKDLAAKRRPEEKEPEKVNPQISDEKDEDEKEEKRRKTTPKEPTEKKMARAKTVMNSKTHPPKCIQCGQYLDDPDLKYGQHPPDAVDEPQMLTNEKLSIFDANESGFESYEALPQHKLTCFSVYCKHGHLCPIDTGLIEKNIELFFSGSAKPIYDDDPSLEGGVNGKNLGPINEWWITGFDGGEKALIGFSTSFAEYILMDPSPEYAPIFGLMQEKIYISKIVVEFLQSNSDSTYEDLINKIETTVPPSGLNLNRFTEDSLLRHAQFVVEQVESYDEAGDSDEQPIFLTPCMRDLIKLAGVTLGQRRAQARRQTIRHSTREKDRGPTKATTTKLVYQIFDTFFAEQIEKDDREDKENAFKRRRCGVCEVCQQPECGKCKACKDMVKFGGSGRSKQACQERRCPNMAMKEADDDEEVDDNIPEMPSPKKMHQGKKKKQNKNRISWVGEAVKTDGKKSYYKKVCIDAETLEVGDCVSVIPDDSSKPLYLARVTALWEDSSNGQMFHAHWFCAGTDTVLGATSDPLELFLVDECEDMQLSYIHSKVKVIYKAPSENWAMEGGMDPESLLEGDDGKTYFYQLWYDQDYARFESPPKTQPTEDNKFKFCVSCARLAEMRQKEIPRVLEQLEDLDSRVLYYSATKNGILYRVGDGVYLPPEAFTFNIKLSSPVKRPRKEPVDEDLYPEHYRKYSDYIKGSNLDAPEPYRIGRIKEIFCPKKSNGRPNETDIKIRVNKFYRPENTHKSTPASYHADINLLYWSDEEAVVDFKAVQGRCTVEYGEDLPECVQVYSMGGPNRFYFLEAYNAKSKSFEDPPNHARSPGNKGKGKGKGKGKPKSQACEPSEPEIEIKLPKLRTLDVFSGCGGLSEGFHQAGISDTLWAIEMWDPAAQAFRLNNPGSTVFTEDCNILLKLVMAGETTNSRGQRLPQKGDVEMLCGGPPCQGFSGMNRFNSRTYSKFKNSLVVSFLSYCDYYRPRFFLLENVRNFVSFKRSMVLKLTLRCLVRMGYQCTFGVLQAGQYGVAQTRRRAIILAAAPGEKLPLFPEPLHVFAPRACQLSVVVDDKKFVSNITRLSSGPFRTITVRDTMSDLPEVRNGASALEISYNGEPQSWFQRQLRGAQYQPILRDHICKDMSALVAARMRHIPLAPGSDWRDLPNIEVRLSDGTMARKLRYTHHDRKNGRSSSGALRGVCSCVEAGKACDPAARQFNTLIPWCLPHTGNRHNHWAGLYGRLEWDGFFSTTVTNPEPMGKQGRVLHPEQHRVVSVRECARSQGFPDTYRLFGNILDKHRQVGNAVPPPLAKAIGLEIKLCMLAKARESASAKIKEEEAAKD
Procedure: His-DNMT1 (182 kDa, human) was cloned, expressed and purified as described by Lee et al.. The DNMT1 assay was performed according to Gros et al.. Briefly, the reaction was started by addition of 90 nM of DNMT1 on a mix containing the tested compound (up to 1% DMSO), 1 µM of a AdoMet/[methyl-^3H]-AdoMet mix in a ratio of 3-to-1 (isotopic dilution 1*:3) and 0.3 µM of biotinylated DNA duplex in 10 µL final volume. The reaction was incubated at 37°C for 2 h in reaction buffer (20 mM HEPES pH 7.2, 1 mM EDTA, 50 mM KCl, 25 µg/mL BSA). 8 µL are then transferred into a streptavidin-coated Flashplate PLUS (PerkinElmer) containing 190 µL of 20 µM AdoHcy (Sigma-Aldrich) in 50 mM Tris-HCl pH 7.4. The Flashplate was agitated at room temperature for 1 h, washed three times with 200 µL of 0.05% Tween-20 in 50 mM Tris-HCl pH 7.4 and read in 200 µL of 50 mM Tris-HCl pH 7.4 on TopCount NXT (PerkinElmer). Percentages of inhibition were calculated with the same formula as in DNMT3A assay.

Human G9a = biological target: T2, Human G9a (Homo sapiens, UniProt Q96KQ7); assay: G9a assay (3H-AdoMet filter-binding); format: biochemical; conditions: for IC50: 10-dose IC50 mode, 2-fold serial dilution starting at 400 µM
T2 sequence (Q96KQ7 786-1210 limits assumed): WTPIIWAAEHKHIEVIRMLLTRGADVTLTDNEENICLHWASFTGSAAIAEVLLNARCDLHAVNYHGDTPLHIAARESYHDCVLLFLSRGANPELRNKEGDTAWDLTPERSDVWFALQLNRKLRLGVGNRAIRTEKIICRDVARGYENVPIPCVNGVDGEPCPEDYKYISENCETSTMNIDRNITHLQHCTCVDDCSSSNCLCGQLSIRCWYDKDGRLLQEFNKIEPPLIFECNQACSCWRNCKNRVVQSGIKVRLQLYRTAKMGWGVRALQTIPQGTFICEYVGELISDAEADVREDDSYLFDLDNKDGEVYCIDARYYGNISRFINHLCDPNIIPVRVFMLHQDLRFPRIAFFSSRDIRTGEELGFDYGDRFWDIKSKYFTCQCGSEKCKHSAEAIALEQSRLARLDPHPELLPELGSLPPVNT
Procedure: The reaction buffer was 50 mM Tris-HCl, pH 8.5, 50 mM NaCl, 5 mM MgCl2, 1 mM dithiothreitol (DTT), 1 mM PMSF, and 1% DMSO. Standard substrate concentrations were 5 µM biotinylated H3 (1–21) peptide (AnaSpec) substrate and 0.1 mM AdoMet. For control compound IC50 determinations, the test compounds were diluted in DMSO and then added to the enzyme/substrate mixture in nanoliter amounts by using an acoustic technology (Echo 500; Lab-cyte). The reaction was initiated by the addition of ^3H-AdoMet, and incubated at 30°C for 1 h. The reaction was detected by a filter-binding method. Data analysis was performed using Graph Pad Prism software for curve fits, and GraFit (Erithacus) for global fit of kinetic studies.

[2] = biological target: T3, human G9a-like protein (GLP) (Homo sapiens, UniProt Q9H9B1); assay: GLP assay (histone methylation inhibition); format: biochemical; conditions: 8 μM inhibitor; read-out: Percent of GLP inhibition
T3 construct: catalytic SET domain (residues 734-1235; pXC758) were purified as described; made in house
T3 sequence (Q9H9B1 765-1266): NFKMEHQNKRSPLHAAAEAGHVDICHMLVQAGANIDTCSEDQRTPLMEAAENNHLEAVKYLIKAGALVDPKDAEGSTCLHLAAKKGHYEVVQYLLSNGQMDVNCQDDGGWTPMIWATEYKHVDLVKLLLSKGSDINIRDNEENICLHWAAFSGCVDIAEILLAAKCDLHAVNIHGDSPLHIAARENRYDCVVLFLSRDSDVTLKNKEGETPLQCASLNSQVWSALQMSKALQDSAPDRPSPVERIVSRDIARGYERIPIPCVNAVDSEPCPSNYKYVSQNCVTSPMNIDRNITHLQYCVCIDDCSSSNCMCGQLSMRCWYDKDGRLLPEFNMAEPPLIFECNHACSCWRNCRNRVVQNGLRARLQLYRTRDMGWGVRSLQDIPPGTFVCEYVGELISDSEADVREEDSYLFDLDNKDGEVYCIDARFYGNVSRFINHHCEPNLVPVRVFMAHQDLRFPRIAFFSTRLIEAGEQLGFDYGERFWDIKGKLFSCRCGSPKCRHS
Procedure: GLP Assay. Recombinant human G9a-like protein (GLP) C-terminal fragment containing both the ankyrin repeats and catalytic SET domain (residues 734-1235; pXC758) were purified as described. For histone methylation inhibition, the assay was performed in 20 μL reaction containing 4.6 mM [methyl-^3H]-AdoMet, 50 μg/mL histone from calf thymus (SIGMA), 10 μg/mL (0.17 μM) GLP, 100 mM KCl, 5 mM (DTT) and 50 mM Tris-HCl pH 8.5. GLP was pre-incubated with AdoMet and 8 µM inhibitors for 5 min at 30 °C before the addition of the histone substrate. After incubation (5 min), the reaction was terminated by the addition of 20% trichloroacetic acid (TCA, Fisher Scientific). The reaction mixture was spotted on GF/A paper circles (Whatman), washed three times with 3 mL of 10% TCA and once with 3 mL of ethanol. The dried circles were subjected to liquid-scintillation counting with Cytoscint scintillant.

RAJI cells = assay: Cell viability by trypan blue exclusion, RAJI; format: cell-based, human; conditions: 48 h; for IC50: Homo sapiens, Raji, read-out: IC50 (mean ± SD) cell viability RAJI
Procedure: U-937 and RAJI cell lines were purchased from Deutsche Sammlung für Mikroorganismen und Zellkulturen (DSZM). Cells were maintained in RPMI 1640 (Lonza) supplemented with 10% fetal calf serum (Lonza) and 1% antibiotic–antimycotic (Lonza). Cells were treated with compounds at the indicated concentrations in exponential growth phase. Proliferation and viability were assessed by trypan blue exclusion analysis at the indicated time points.

Row | Compound | fold-induction of the luciferase signal (CMV-luc) ([1]; 5 µM) | fold-induction of the luciferase signal (CMV-luc) ([1]; 25 µM) | inhibition at 100 µM (human DNMT1 (hDNMT1)) | inhibition at 0.78 µM (Human G9a) | inhibition at 1.56 µM (Human G9a) | inhibition at 3.1 µM (Human G9a) | inhibition at 6.2 µM (Human G9a) | inhibition at 12.5 µM (Human G9a) | inhibition at 25 µM (Human G9a) | inhibition at 50 µM (Human G9a) | inhibition at 100 µM (Human G9a) | inhibition at 200 µM (Human G9a) | inhibition at 400 µM (Human G9a) | IC50 (Human G9a) | inhibition at 8 µM [2] | IC50 (RAJI cells) | fold-induction of the luciferase signal (CMV-luc) ([1]; 50 µM) | other results
1 | c1ccc(CN2CCC(Nc3nc(N4CCN(c5ccccn5)CC4)nc4ccccc34)CC2)cc1 [Compound 13] | 2/3 | not effective | 0% | 9.4% | 21.6% | 11% | 16.7% | 0% | 11.1% | 27.2% | 24.9% | 29.2% | 14% | > 400 µM | 3.3% | 19.7 ± 1.4 µM | – | –
2 | CN1CCCN(c2nc(NC3CCN(Cc4ccccc4)CC3)c3ccccc3n2)CC1 [Compound 4] | – | 12.5 fold | 0% | 0% | 0% | 1.9% | 0% | – | 0% | 7.9% | 21.8% | 16.4% | 23.5% | > 400 µM | 0% | 21.1 ± 2.5 µM | ineffective | fold-induction of the luciferase signal (CMV-luc) ([1]; 10 µM): 2.8 fold
3 | c1ccc(CN2CCC(Nc3nc(N4CCCC4)nc4ccccc34)CC2)cc1 [Compound 10, N-(1-benzylpiperidin-4-yl)-2-(pyrrolidin-1-yl)quinazolin-4-amine] | 2/3 | not effective | 47 ± 1.7% | 0.3% | 13.4% | 14.7% | 4.6% | 5.9% | 13% | 18.6% | 20.8% | 49.5% | 37.8% | > 400 µM | 9.2% | 18.7 ± 4.3 µM | – | inhibition at 10 µM (human DNMT1 (hDNMT1); 10 µM compound): 6.5%; inhibition at 32 µM (human DNMT1 (hDNMT1); 32 µM compound): 18%; EC50 (human DNMT1 (hDNMT1); means of at least three experiments): 144 ± 35 µM
4 | c1ccc(CN2CCC(Nc3nc(N4CCN(c5ccccc5)CC4)nc4ccccc34)CC2)cc1 [Compound 14, N-(1-benzylpiperidin-4-yl)-2-(4-phenylpiperazin-1-yl)quinazolin-4-amine] | 2/3 | 7.5 fold | 0% | 17.3% | 13.5% | 0% | 4.2% | 21.3% | 10.6% | 16.5% | 22.4% | 23.8% | 24% | > 400 µM | 10% | 3.4 ± 0.3 µM | ineffective | antiproliferative potency compared to SGI-1027, fold more potent (RAJI cells; RAJI): 3 fold
